PMC9412861, “Understanding the pH Dependence of Supersaturation State—A Case Study of Telmisartan” (Pharmaceutics, 2022)

Tests used:
[1] = Kinetic solubility measurement (µDISS profiler); assay type: physicochemical
Method: The kinetic solubility measurements of TEL were determined using µDISS™ profiler (Pion Inc., Billerica, MA, USA). The method was described earlier by Kadar et al..

[2] = between pH 3–8; cited from earlier work
[3] = ESI mass spectrometry of saturated solutions (aggregation); assay type: physicochemical; settings: buffer-free saturated solution
Method: An ESI- triple quadrupole-MS/MS instrument (4000 Q TRAP) from Applied Biosystems (Foster City, CA, USA) was used for the MS and MS/MS measurements. Compounds were analyzed in the positive mode, and the settings were ion spray voltage 4500 V, ion source gas (N2) 16 arbitrary units (a.u.), curtain gas (N2) 10 a.u., declustering potential 20 V, and entrance potential 10 V. For MS/MS experiments, the settings were collision gas (N2) medium, and collision energy 51 V. Saturated samples were infused at a rate of 6 μL/min using Harvard Apparatus Syringe pump (Holliston, MA, USA). Analyst 1.4.2. software from Applied Biosystems (Foster City, CA, USA) was used for data acquisition and processing.

## CCCc1nc2c(C)cc(-c3nc4ccccc4n3C)cc2n1Cc1ccc(-c2ccccc2C(=O)O)cc1 [Telmisartan, telmisartan]
[1]; Prisma HT buffer, 37 °C
  pH range of minimal kinetic solubility: 3–6
[1]; based on kinetic solubility results
  pH range in which a supersaturated solution is formed: 3–8
[1]; more acidic pHs (below pH 3)
  difference between thermodynamic and kinetic solubility: no significant difference
[1]; pH = 3 to pH = 8
  difference between thermodynamic and kinetic solubility: near two-magnitude difference
[2]
  solubility: low solubility
[3]; higher pHs (e.g., pH 10)
  dimerization in solution by MS: no dimerization could be observed
[3]; pH range 3–8
  dimerization in solution by MS: peak corresponding to the dimeric structure could be detected
